Experimental data from US20260193244A1 (Protego Biopharma, Inc., priority 2022, published 2026).

Tested on: IRE1-XBP1s (HEK293 T-REx cells stably expressing the XBP1-RLuc splicing reporter)
Test: IRE1-XBP1s activation Assay (XBP1-RLuc splicing reporter, luminescence relative to thapsigargin, with or without IRE1 inhibitor 4μ8C)
Assay type: cell-based
Conditions: 18 h, compound 10 μM, luminescence as percentage signal relative to thapsigargin (Tg) (500 nM, 18 h)
Protocol: IRE1-XBP1s activation Assay: HEK293 T-REx cells stably expressing the XBP1-RLuc splicing reporter were treated with an IRE1-XBP1s activator provided herein (10 μM) in the presence or absence of the IRE1 active site inhibitor 4μ8C (32 μM) for 18 h. Luminescence was shown as the percentage signal relative to thapsigargin (Tg) (500 nM, 18 h).

Structure (SMILES) | activation at 10 µM [%]
Cc1ccc(OCCN(C)C(=O)Cn2cc(NC(=O)C3CCC(Oc4ccncc4)CC3)cn2)cc1 (centres unmarked) [Compound 102] | ≥ 50
Cc1ccc(N2CCCN(C(=O)Cn3cc(NC(=O)CCOc4ccccc4)cn3)CC2)cc1 [Compound 23] | < 30
Cc1ccc(Oc2cccc(N(C)C(=O)Cn3cc(NC(=O)CCOc4ccccc4)cn3)c2)cc1 [Compound 116] | < 30
Cc1ccc(OC2CCCC23CN(C(=O)Cn2cc(NC(=O)C4COc5ccccc5O4)cn2)C3)cc1 (centres unmarked) [Compound 199] | < 30
Cc1ccc(OC2CCCN(C(=O)Cn3cc(NC(=O)CCOc4cncc(C(F)(F)F)c4)cn3)C2)cc1 (centres unmarked) [Compound 89] | < 30
